The record followed here is patent US8703768B2, “Nitrogen containing heteroaryl compounds” (Hoffmann-La Roche Inc., priority 2010, dated 2014).

The target of the assay is human PDE10A (Homo sapiens (Human), UniProt Q9Y233). The assay is described as follows: human PDE10A full length Scintillation Proximity Assay (SPA). The format is biochemical. The settings on record: 50 nM cGMP and 50 nM [3H]-cGMP, 20 minutes at room temperature; read-out: PDE10A inhibition IC50. In a few lines: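 Radiometric SPA read-out: after 20 min at room temperature with [^3H]-cGMP/cGMP substrate, zinc sulphate (18 mM) bead stop reagent added and counts read after 1 h. Non-specific signal defined without enzyme; full-length protein used.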
Sequence of human PDE10A (Q9Y233 other isoform, or with tags, fused parts or gaps): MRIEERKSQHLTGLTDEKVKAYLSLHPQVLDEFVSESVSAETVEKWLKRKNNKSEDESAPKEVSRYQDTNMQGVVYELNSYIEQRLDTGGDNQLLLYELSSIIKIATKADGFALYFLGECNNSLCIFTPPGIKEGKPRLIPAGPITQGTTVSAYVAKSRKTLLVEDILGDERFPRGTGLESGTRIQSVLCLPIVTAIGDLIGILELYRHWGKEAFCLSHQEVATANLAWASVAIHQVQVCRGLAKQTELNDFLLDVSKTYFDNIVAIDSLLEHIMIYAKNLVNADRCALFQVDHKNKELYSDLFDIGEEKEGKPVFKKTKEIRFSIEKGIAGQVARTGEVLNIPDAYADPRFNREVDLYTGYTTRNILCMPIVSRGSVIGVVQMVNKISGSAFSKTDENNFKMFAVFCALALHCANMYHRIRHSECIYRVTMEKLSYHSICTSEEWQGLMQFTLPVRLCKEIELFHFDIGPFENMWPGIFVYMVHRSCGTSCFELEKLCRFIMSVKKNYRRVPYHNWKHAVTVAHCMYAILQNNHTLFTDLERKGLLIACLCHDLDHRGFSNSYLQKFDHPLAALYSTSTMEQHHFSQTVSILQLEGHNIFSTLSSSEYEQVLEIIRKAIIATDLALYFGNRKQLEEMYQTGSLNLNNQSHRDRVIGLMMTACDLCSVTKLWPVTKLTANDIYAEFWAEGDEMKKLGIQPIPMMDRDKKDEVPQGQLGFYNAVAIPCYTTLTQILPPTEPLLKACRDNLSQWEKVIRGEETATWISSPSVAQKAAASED

Take `CNC(=O)c1c(NC(=O)c2nc(C3CC3)cnc2Nc2cncnc2)cnn1CCOC` [Example 147, 6-Cyclopropyl-3-(pyrimidin-5-ylamino)-pyrazine-2-carboxylic acid [1-(2-methoxy-ethyl)-5-methylcarbamoyl-1H-pyrazol-4-yl]-amide]: the IC50 was found to be 1.2 nM.
Take `Cn1cc(NC(=O)c2nc(C3CC3)ccc2Nc2cncnc2)c(C(=O)N2CC(O)C2)n1` [Example 50, 6-Cyclopropyl-3-(pyrimidin-5-ylamino)-pyridine-2-carboxylic acid [3-(3-hydroxy-azetidine-1-carbonyl)-1-methyl-1H-pyrazol-4-yl]-amide]: the IC50 worked out at 31.7 nM.
Regarding `Cn1ncc(NC(=O)c2nc(C3CC3)cnc2Nc2cncnc2)c1C(=O)N1CCCCC1` [Example 168, 6-Cyclopropyl-3-(pyrimidin-5-ylamino)-pyrazine-2-carboxylic acid [1-methyl-5-(piperidine-1-carbonyl)-1H-pyrazol-4-yl]-amide], the IC50 was 32.9 nM.
The value for `CNC(=O)c1cc(C(C)C)ccc1NC(=O)c1nc(C2CC2)cnc1Nc1cncnc1` [Example 208, 6-Cyclopropyl-3-(pyrimidin-5-ylamino)-pyrazine-2-carboxylic acid (4-isopropyl-2-methylcarbamoyl-phenyl)-amide] was 1.3 nM; that for `CCn1ncc(NC(=O)c2nc(C3CC3)cnc2Nc2cncnc2)c1C(=O)NCC1CCCO1` (centres unmarked) [Example 233, 6-Cyclopropyl-3-(pyrimidin-5-ylamino)-pyrazine-2-carboxylic acid {1-ethyl-5-[(tetrahydro-furan-2-ylmethyl)-carbamoyl]-1H-pyrazol-4-yl}-amide] was 24.9 nM.
As for `CC(CO)NC(=O)c1nn(C)cc1NC(=O)c1nc(C2CC2)ccc1Nc1cncnc1` (centres unmarked) [Example 45, 6-Cyclopropyl-3-(pyrimidin-5-ylamino)-pyridine-2-carboxylic acid [3-(2-hydroxy-1-methyl-ethylcarbamoyl)-1-methyl-1H-pyrazol-4-yl]-amide], the figure is 17.1 nM; as for `CN(C(=O)c1c(NC(=O)c2nc(C3CC3)cnc2Nc2cncnc2)cnn1C)C1CCOCC1` [Example 231, 6-Cyclopropyl-3-(pyrimidin-5-ylamino)-pyrazine-2-carboxylic acid {1-methyl-5-[methyl-(tetrahydro-pyran-4-yl)-carbamoyl]-1H-pyrazol-4-yl}-amide], 41.7 nM.
Turning to `CNC(=O)c1c(NC(=O)c2nc(C3CC3)cnc2Nc2cncnc2)cnn1C(C)C` [Example 139, 6-Cyclopropyl-3-(pyrimidin-5-ylamino)-pyrazine-2-carboxylic acid (1-isopropyl-5-methylcarbamoyl-1H-pyrazol-4-yl)-amide], the IC50 is 11.6 nM.
For `CCn1ncc(NC(=O)c2nc(C3CC3)cnc2Nc2cncnc2)c1C(=O)NC` [Example 133, 6-Cyclopropyl-3-(pyrimidin-5-ylamino)-pyrazine-2-carboxylic acid (1-ethyl-5-methylcarbamoyl-1H-pyrazol-4-yl)-amide], the IC50 is 6.7 nM.
Take `CN(C)C(=O)c1ccc(F)cc1NC(=O)c1nc(C2CC2)cnc1Nc1cncnc1` [Example 294, 6-Cyclopropyl-3-(pyrimidin-5-ylamino)-pyrazine-2-carboxylic acid (2-dimethylcarbamoyl-5-fluoro-phenyl)-amide]: the IC50 was determined as 19.3 nM.
The value for `CNC(=O)c1cc(CCC(=O)O)ccc1NC(=O)c1nc(C2CC2)cnc1Nc1cncnc1` [Example 328, 3-(4-{[6-Cyclopropyl-3-(pyrimidin-5-ylamino)-pyrazine-2-carbonyl]-amino}-3-methylcarbamoyl-phenyl)-propionic acid] was 0.4 nM.
As for `CNC(=O)c1c(NC(=O)c2nc(COC)ccc2Nc2cncnc2)cnn1C` [Example 189, 6-Methoxymethyl-3-(pyrimidin-5-ylamino)-pyridine-2-carboxylic acid (1-methyl-5-methylcarbamoyl-1H-pyrazol-4-yl)-amide], the figure is 144 nM; as for `O=C(Nc1cncnc1C(=O)N1CCCC1)c1nc(C2CC2)cnc1Nc1cncnc1` [Example 219, 6-Cyclopropyl-3-(pyrimidin-5-ylamino)-pyrazine-2-carboxylic acid [4-(pyrrolidine-1-carbonyl)-pyrimidin-5-yl]-amide], 52.3 nM; as for `CC1(NC(=O)c2ncccc2NC(=O)c2nc(C3CC3)cnc2Nc2cncnc2)COC1` [Example 275, 6-Cyclopropyl-3-(pyrimidin-5-ylamino)-pyrazine-2-carboxylic acid [2-(3-methyl-oxetan-3-ylcarbamoyl)-pyridin-3-yl]-amide], 0.4 nM.
For the compound `Cn1ncc(NC(=O)c2nc(C3CC3)cnc2Nc2cncnc2)c1C(=O)NC1CCNC1` (centres unmarked) [Example 251, 6-Cyclopropyl-3-(pyrimidin-5-ylamino)-pyrazine-2-carboxylic acid [1-methyl-5-(pyrrolidin-3-ylcarbamoyl)-1H-pyrazol-4-yl]-amide], the IC50 came out at 137 nM.
As to `CNC(=O)c1nn(C)cc1NC(=O)c1nc(C(C)C)ncc1Nc1cncnc1` [Example 75, 2-Isopropyl-5-(pyrimidin-5-ylamino)-pyrimidine-4-carboxylic acid (1-methyl-3-methylcarbamoyl-1H-pyrazol-4-yl)-amide], the IC50 is 8.8 nM.
As for `CNC(=O)c1c(Cl)cccc1NC(=O)c1nc(C2CC2)cnc1Nc1cncnc1` [Example 196, 6-Cyclopropyl-3-(pyrimidin-5-ylamino)-pyrazine-2-carboxylic acid (3-chloro-2-methylcarbamoyl-phenyl)-amide], the figure is 22 nM; as for `CN(CCO)C(=O)c1nn(C)cc1NC(=O)c1nc(C2CC2)ccc1Nc1cncnc1` [Example 40, 6-Cyclopropyl-3-(pyrimidin-5-ylamino)-pyridine-2-carboxylic acid {3-[(2-hydroxy-ethyl)-methyl-carbamoyl]-1-methyl-1H-pyrazol-4-yl}-amide], 7.5 nM.
The value for `O=C1CN(C(=O)c2ccncc2NC(=O)c2nc(C3CC3)ccc2Nc2cncnc2)CCN1` [Example 60, 6-Cyclopropyl-3-(pyrimidin-5-ylamino)-pyridine-2-carboxylic acid [4-(3-oxo-piperazine-1-carbonyl)-pyridin-3-yl]-amide] was 232 nM; that for `Cn1cc(NC(=O)c2nc(C3CC3)ccc2Nc2cncnc2)c(C(=O)NCC(O)CO)n1` (centres unmarked) [Example 42, 6-Cyclopropyl-3-(pyrimidin-5-ylamino)-pyridine-2-carboxylic acid [3-(2,3-dihydroxy-propylcarbamoyl)-1-methyl-1H-pyrazol-4-yl]-amide] was 8.1 nM; that for `CCn1cc(NC(=O)c2nc(C3CC3)cnc2Nc2cncnc2)c(C(=O)NC)n1` [Example 107, 6-Cyclopropyl-N-(1-ethyl-3-(methylcarbamoyl)-1H-pyrazol-4-yl)-3-(pyrimidin-5-ylamino)pyrazine-2-carboxamide] was 117 nM.
`O=C(Nc1cccnc1C(=O)N1CCCCC1)c1nc(C2CC2)cnc1Nc1cncnc1` [Example 195, 6-Cyclopropyl-3-(pyrimidin-5-ylamino)-pyrazine-2-carboxylic acid [2-(piperidine-1-carbonyl)-pyridin-3-yl]-amide]: the IC50 was 16.4 nM.
For `CNC(=O)c1nn(C)cc1NC(=O)c1nc(C(C)(C)C)ncc1Nc1cncnc1` [Example 77, 2-tert-Butyl-5-(pyrimidin-5-ylamino)-pyrimidine-4-carboxylic acid (1-methyl-3-methylcarbamoyl-1H-pyrazol-4-yl)-amide], the IC50 stood at 3.4 nM.
